PMC12389269, “Heteroaryl-Capped Hydroxamic Acid Derivatives with Varied Linkers: Synthesis and Anticancer Evaluation with Various Apoptosis Analyses in Breast Cancer Cells, Including Docking, Simulation, DFT, and ADMET Studies” (Pharmaceuticals, 2025)
Converted amounts (≈) assume the structure as drawn. “Also recorded” adds a separate entry of the source.

Tests used:
[1] = test system: MCF-7 (Human Breast Cancer Cell Line); experiment: SRB antiproliferative assay, MCF-7; assay type: cell-based; conditions: Homo sapiens, MCF7, MCF-7, 48 h, read-out: GI50
Method: (§1) Following an extensive review of the literature, we selected human breast cancer (MCF-7, MDA-MB-231) and lung cancer (A549) cell lines to evaluate the anticancer potential of the synthesized compounds, and some compounds with good anti-proliferation activity were again tested to evaluate their cytotoxic potential on A-549, MCF-7, and MDA-MB-231. The same were also tested on one non-cancerous/normal (HEK-293) cell line. All the cell lines for the required screening were developed in a suitable medium comprising 10% FBS and 2mM L-glutamine. Cancerous and non-cancerous/normal cell lines were selected for the cell proliferation and cytotoxicity assay and maintained with 5% CO2 at 37 °C in a CO2 incubator with 100% relative humidity for one complete day before the addition of experimental drugs.
Antiproliferative activity through an SRB assay was performed for all the synthesized compounds on A-549 and MCF-7 cell lines. Around 5000 cells/well were quarantined into a 96-well microtiter plate in 100 μL. The synthesized compounds were solubilized in DMSO and diluted to different concentrations before use. The final-drug-concentration aliquots were poured into microtiter wells, and the plates were incubated for 48 h in regular conditions. After adding the final drug concentration, the cells were allowed to set in place and incubated for 60 min. A total of 50 µL of SRB solution (0.4% w/v) in 1% CH3COOH was poured into each well. The plates were then incubated for 20 min at RT. During subsequent staining, the unbounded dye was removed, and the plate reader recorded the eluted bound stain at 540 nm with a 690 nm reference wavelength. The assay was performed precisely using the appropriate reagents and reaction situation, as per the reported procedure. ADR was selected as the reference drug.

MCF-7 cells [2] = experiment: MTT cytotoxicity assay, MCF-7; assay type: cell-based; conditions: Homo sapiens, MCF7, MCF-7, 24 h
Method: as §1
(§2) MTT, a well-known colorimetric cytotoxic assay was performed to validate the cytotoxicity of the selected compounds—VI(b), VI(c), VI(e), and VI(i)—against three different human tumor cell lines [MCF-7, MDA-MB-231, A549] and a normal cell line [HEK293]. The seeding of 1 × 10^4 cells onto each well was executed in a 96-well plate in triplicate, and to keep the cells viable, overnight incubation was undertaken at 37 °C with 5% CO2 in a CO2 incubator. […] The microplate reader was set at 570 nm to measure the absorbance of each well.

HDAC1 = biological target: T1, HDAC1 (Homo sapiens, UniProt Q13547); experiment: HDAC inhibition assay (color de lys ELISA kit), HDAC1; assay type: biochemical; conditions: HeLa nuclear extract as source of HDAC activity
T1 construct: The HeLa nuclear extract was used as a source of HDAC activity; host or cells: HeLa (nuclear extract / cells)
T1 sequence (Q13547 whole entry): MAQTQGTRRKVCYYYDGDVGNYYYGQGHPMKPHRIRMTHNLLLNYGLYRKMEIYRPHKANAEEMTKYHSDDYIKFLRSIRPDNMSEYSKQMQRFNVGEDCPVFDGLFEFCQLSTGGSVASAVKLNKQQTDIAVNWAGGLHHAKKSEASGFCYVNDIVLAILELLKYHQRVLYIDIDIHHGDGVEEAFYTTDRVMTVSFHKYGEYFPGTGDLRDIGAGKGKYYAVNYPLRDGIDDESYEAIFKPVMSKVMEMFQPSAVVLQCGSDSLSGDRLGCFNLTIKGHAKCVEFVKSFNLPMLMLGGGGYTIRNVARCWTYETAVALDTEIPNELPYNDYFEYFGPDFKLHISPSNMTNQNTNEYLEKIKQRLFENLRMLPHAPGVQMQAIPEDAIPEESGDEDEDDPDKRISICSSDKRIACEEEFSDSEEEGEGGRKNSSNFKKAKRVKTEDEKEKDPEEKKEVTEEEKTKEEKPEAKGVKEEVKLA
Method: SAHA served as the assay’s positive control. The HeLa nuclear extract was used as a source of HDAC activity. The trypsinized HeLa cells were tallied, put into 96-well microtiter plates, and nurtured. Samples and the standard were placed in wells at a concentration of 100 µL. The culture environment was maintained as per the procedure. 3,3′,5,5′-tetramethylbenzidine (TMB) was included for visualization. Finally, 50 µL of halt solution was smeared. The samples and different SAHA concentrations (0.01, 0.1, 1, 10 μM) were introduced to the appropriate well and left for 72 h. BioTek Epoch (Winooski, VT, USA) microplate reader was used to quantify optical density at 450 nm. The Graph Pad Prism 5 helped to determine the IC50 values.

A549 cells = experiment: MTT cytotoxicity assay, A549; assay type: cell-based; conditions: Homo sapiens, A549, 24 h
Method: as §1, §2

MDA-MB-231 cells = experiment: MTT cytotoxicity assay, MDA-MB-231; assay type: cell-based; conditions: Homo sapiens, MDA-MB-231, 24 h
Method: as §1, §2

HEK-293 cells = experiment: MTT cytotoxicity assay, normal cell line HEK-293; assay type: cell-based
Method: as §1, §2

MCF-7 cells [3] = experiment: Cell cycle analysis, propidium iodide flow cytometry; assay type: cell-based, human
Method: Apoptosis can also be determined based on the content of the DNA allocation at different stages of cell cycle distribution. The cultured MCF-7 cell line was washed, trypsinized, and seeded, followed by compound VI(i) exposure in a 6-well cell culture plate. Following this, cells were harvested using 1mM EDTA; then, to fix the cells, ice-cold ethanol was used, and overnight, cells were kept at −20 °C. Afterwards, cells were maintained at room temperature, followed by centrifugation at 3000 RPM for 7 min. Then, staining was conducted using propidium iodide, RNase A, and Triton-X in a buffer (phosphate-buffered saline). It was then analyzed using a flow cytometer.

MCF-7 cells [4] = experiment: Apoptosis study, acridine orange/ethidium bromide dual staining; assay type: cell-based, human; conditions: AO/EtBr staining, MCF-7, 40, 60, 80 µg/mL
Method: The staining technique was performed to determine changes in cellular morphology as acridine orange is a cell-permeable dye; i.e., it can enter inside the nucleus and subsequently intercalate with the DNA of both live and apoptotic cells an then emit a green fluorescence. On the other hand, ethidium bromide can only cross the plasma membrane of compromised or late apoptotic cells and bind with their DNA, subsequently radiating an orange to red fluorescence. Therefore, to assess alterations in the morphology of cells, MCF-7 cells were planted in a 12-well plate at a density of 5 × 10^4 cells/well and incubated in humidified air for 24 h at 37 °C. Following cell seeding, MCF-7 cells were exposed to compound VI(i) with at lower (40 µg/mL), IC50 (60 µg/mL), and higher (80 µg/mL) concentrations. Following this, the incubated cells were washed with a buffer (phosphate-buffered saline), and dual staining was executed with acridine orange and ethidium bromide. Then, a 12-well cell culture plate was kept at 37 °C for 30 min of incubation. Consequently, cells were lightly rinsed with phosphate-buffered saline. Following this, pictures were obtained in the inverted fluorescence microscope using the red and green channels for both the dyes.

[5] = MCF-7, IC50 concentration (60 µg/mL)
[6] = MCF-7, higher concentration (80 µg/mL)
[7] = MCF-7, lower concentration (40 µg/mL)

GI50 [1]: < 10 µg/mL
IC50 (HDAC1): 10.1 µM
Structure (SMILES): COc1ccc(-c2cnn(CCCCCC(=O)NO)n2)cc1 [VI(i), N-Hydroxy-6-(4-(4-methoxyphenyl)-2H-1,2,3-triazol-2-yl)hexanamide]
IC50 (MCF-7 cells [2]): 60 µg/mL (≈ 197 µM)
IC50 (A549 cells): > 100 µg/mL
IC50 (MDA-MB-231 cells): > 100 µg/mL
toxicity towards normal cell line (HEK-293 cells): low toxicity; also recorded: somewhat minimal toxicity
increase in cells arrested in G2/M phase compared to control (MCF-7 cells [3]; [5]): 15.91%
increase in cells arrested in S phase compared to control (MCF-7 cells [3]; [5]): 6.9%
increase in cells arrested in G2/M phase compared to control (MCF-7 cells [3]; [6]): 19.35%
increase in cells arrested in S phase compared to control (MCF-7 cells [3]; [6]): 6.07%
increase in cells arrested in G2/M phase compared to control (MCF-7 cells [3]; [7]): 11.98%
increase in cells arrested in S phase compared to control (MCF-7 cells [3]; [7]): 5.92%
apoptosis induction (cell morphology) (MCF-7 cells [4]): effectively trigger the apoptotic mode of cell death in breast cancer cells in a concentration-dependent manner
